Where a chain is given by its changes, count along the chain named. Where two headings read alike, the source gives them in different places. No end group written: not given here.

Experimental findings from patent US12486528B2, “Compositions and methods for measuring and inhibiting calpain-5 activity” (The Board of Trustees of the Leland Stanford Junior …, priority 2019, dated 2025) are described below.

One test concerns the target CAPN5-R243L (Homo sapiens, UniProt O15484, R243L). Briefly: FRET-based CAPN5 inhibition assay, R243L mutant protease. In kind it is biochemical. As for the experimental part: (§1) We have optimized the CAPN5 assay and developed a high throughput CAPN5 inhibition assay which utilizes 384-well plates and uses less than 50 nM protease for each experimental condition. Calpain proteolytic activity was measured by hydrolysis of DABCYL-TPLKSPPPSPR (SEQ ID NO:3)-EDANS (Calpain Substrate III; Calbiochem). Briefly, 50 nM of purified CAPN5-G267S protease core domain was added to a reaction buffer containing 50 mM imidazole (pH 7.0), 200 mM NaCl, 20 mM CaCl2, 1 mM EDTA, 8 mM Li-acetate, 0.19 mM Facade®-EPC, 1 mM TCEP, 0.8% (v/v) glycerol, 4% (v/v) 1,3-butanediol. 8 μL of protease was added to each well of the 384-well plates. Varying concentrations of […] (final concentration of 0.1 μM to 100 μM; 4 μL in each well) were added and the reaction was incubated at 37° C. for 30 minutes. After incubation, 8 μL of Calpain Substrate III was added to each well (final concentration of 40 μM; total reaction volume was 20 μL) and EDANS signal was measured on a fluorimetric plate reader (Tecan Spark, Mannedorf Switzerland). All experiments were performed in triplicate. Reaction rates were fit to the Hill equation to determine the IC50 values in GraphPad Prism 8. This assay condition is compatible with CAPN1 and CAPN5 wild-type. We have chosen CAPN5-G267S for initial inhibitor screening, since it has higher activity than CAPN5 wild-type and the mutation is located at the G2-loop which is away from the active site that is likely to have identical specificity to CAPN5 wild-type specificity.
(§2) We have identified the PDGFB protein as a substrate. We discovered a likely proteolytic site for CAPN5 on PDGFB, and sought to use this information to inhibit proteolysis assuming the alteration of a robust endogenous substrate of CAPN5 would create an opportunity for more specific inhibition of CAPN5. We generated two artificial peptides by methylating only P1-Lysine (1-Methylated; FIG. 7A) or both P1-Lysine and P1′-Lysine (2-Methylated; FIG. 7B) expecting the methylation would make the PDGFB peptide motif resistant to CAPN5 proteolysis. We tested their inhibitory potential against CAPN5-G267S using our high throughput FRET-based CAPN5 inhibition assay. […] We further tested them with the CAPN5 wild-type and CAPN5-R243L mutant proteases. Both methylated PDGFB peptides inhibited CAPN5-R243L activity at the nanomolar IC50 (FIG. 7E).

The next test deals with CAPN5 wild-type (Homo sapiens, UniProt O15484). Briefly: FRET-based CAPN5 inhibition assay, wild-type protease. The test is classed as biochemical. Particulars: for IC50: CAPN5 WT; for inhibition of wildtype CAPN5: CAPN5 wild-type. As for the experimental part: as §1, §2
In a further test the target is T1, CAPN5-PC p.G267S (Homo sapiens, UniProt O15484, G267S).
T1 construct: active recombinant CAPN5 protease core (CAPN5-PC)
T1 sequence (O15484 26-343 G267S limits assumed): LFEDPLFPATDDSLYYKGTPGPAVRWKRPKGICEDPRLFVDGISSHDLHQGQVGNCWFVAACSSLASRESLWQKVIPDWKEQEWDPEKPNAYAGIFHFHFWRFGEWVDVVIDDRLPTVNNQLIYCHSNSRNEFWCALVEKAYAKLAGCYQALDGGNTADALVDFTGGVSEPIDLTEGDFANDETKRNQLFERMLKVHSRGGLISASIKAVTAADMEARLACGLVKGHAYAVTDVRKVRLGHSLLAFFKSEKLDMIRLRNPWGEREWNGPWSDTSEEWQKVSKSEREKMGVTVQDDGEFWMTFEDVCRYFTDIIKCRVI
Briefly: In vitro CAPN5 activity assay with consensus FRET peptides. The test is classed as biochemical. Particulars: 1.6 μM CAPN5-PC p.G267S, 10 mM Ca^2+. As for the experimental part:
Consensus FRET peptides were synthesized based on the highest scoring amino acids at each position of the PSSM (Peptides P4′A, P4′P, P2R, and P3GP1′ V) and were tested in our in vitro CAPN5 activity assay (FIG. 9B). These substrates were hydrolyzed by 1.6 μM CAPN5-PC p.G267S in the presence of 10 mM Ca^2+. […] The catalytic efficiency (kcat/Km) of this peptide was higher than the observed kcat/Km for our previously determined PR1476 peptide (11 vs. 7 M^−1s^−1; FIG. 9D).

Test [1] has as its target T2, Calpain-5 protease core domain (CAPN5-PC) (Homo sapiens, UniProt O15484).
T2 sequence (O15484 26-343 limits assumed): T1 sequence (O15484 26-343 G267S limits assumed) with S242G
Briefly: CAPN5 functional assay (FRET peptide substrate kinetics).
Description: The assay was performed using a Greiner 96-well Black Small Volume plate according to the following protocol for measuring enzymatic activity of the calpain-5 protease: • Dilute CAPN5 in activity buffer to make a master mix at 3 concentrations. • Add 50 μL of substrate diluted with activity buffer (7 working concentrations at 2×). • Add 50 μL of CAPN5 to each well with multi-channel pipette. • Measure fluorescence activity (336/490 nm) on Tecan Spark at 37° C. for 2 hours with recordings taken every 2 minutes (with lid). • Convert RFU values to nM product using standard curve of EDANS concentrations (2 nM to 5 μM). • Calculate reaction velocity (slope) at each substrate concentration using linear regression. • Calculate Michaelis-Menten kinetic parameters in GraphPad Prism 8.

The target of the next test is Human CAPN5-PC (Homo sapiens, UniProt O15484). Briefly: Human CAPN5-PC | Ki (µM). The method, then:
Table printed on a drawing sheet, FIG. 1C
Head of the field: Human CAPN5-PC | Ki (µM)
The patent's description of the figure: FIGS. 1A-1C show kinetic analysis of human CAPN5 and rat CAPN1 with the peptide substrates, RQNRGGGCINH (SEQ ID NO:1, FIG. 1A) and PLFAER (SEQ ID NO:2, FIG. 1B).
FIGS. 1A-1B show kinetic analysis of human CAPN5 and rat CAPN1 with the peptide substrates, RQNRGGGCINH (SEQ ID NO:1, FIG. 1A) and PLFAER (SEQ ID NO:2, FIG. 1B) using this protocol. […] A 10 mM PR1476 master stock was prepared in 100% DMSO. 3.69 mM PR1478 master stock was prepared in 50% DMSO/50% activity buffer.
First copying reader's note: Enzyme kinetic parameters of peptide substrates with calpain protease cores; the ± error stands inside the cells.
Where the first naming reader finds the target: head: Human CAPN5-PC

Sequence of CAPN5 wild-type (O15484 whole entry): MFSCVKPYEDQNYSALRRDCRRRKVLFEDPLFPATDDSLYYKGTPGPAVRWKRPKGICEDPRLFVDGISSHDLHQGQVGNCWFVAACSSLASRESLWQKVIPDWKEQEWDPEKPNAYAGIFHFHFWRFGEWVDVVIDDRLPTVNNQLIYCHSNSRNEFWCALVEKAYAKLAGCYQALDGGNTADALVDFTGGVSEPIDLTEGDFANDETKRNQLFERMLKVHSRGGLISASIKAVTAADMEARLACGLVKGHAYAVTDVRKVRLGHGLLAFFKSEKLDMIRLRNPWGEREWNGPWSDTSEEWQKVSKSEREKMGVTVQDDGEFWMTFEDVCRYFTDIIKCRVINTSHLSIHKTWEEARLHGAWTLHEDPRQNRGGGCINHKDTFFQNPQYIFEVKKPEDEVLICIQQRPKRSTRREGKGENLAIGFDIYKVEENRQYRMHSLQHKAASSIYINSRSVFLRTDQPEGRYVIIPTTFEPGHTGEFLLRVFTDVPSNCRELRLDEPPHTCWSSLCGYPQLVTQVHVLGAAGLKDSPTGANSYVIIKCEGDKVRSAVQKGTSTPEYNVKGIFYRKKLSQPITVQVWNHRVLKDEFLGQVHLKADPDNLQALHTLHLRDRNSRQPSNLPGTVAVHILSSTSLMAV
Sequence of CAPN5-R243L (O15484 whole entry R243L, the tested form may be a part): as the sequence (O15484 whole entry) above, with R243L counted along it
Sequence of Human CAPN5-PC (O15484 26-343): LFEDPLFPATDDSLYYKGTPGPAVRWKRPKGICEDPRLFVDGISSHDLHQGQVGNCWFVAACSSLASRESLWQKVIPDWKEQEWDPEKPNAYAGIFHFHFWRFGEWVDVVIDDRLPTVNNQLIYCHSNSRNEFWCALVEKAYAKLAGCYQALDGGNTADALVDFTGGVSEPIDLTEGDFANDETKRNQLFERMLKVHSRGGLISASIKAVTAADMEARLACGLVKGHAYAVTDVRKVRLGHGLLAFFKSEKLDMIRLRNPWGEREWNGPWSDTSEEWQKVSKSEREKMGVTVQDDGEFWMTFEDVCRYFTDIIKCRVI

Consider `CCCC[C@@H](C=O)NC(=O)[C@H](CC(C)C)NC(=O)OCc1ccccc1` [Calpeptin], for which the “inhibition of CAPN5-R243L (mutant CAPN5)” value on CAPN5-R243L is listed as “did not show any inhibition”. Moreover, the “inhibition of CAPN5-R243L (mutant CAPN5)” value against CAPN5-R243L (listed as calpeptin) is recorded as “not the mutant CAPN5”. On CAPN5 wild-type, the IC50 result is “nanomolar” and the “inhibition of wildtype CAPN5” value is on record as “inhibit the wildtype”.

Consider `CC(=O)N[C@@H](CC(C)C)C(=O)N[C@@H](CC(C)C)C(=O)N[C@H](C=O)CCCNC(=N)N` [Leupeptin], for which, on CAPN5-R243L, the “inhibition of CAPN5-R243L (mutant CAPN5)” value is reported as “did not show any inhibition”. Further, at CAPN5-R243L (listed as leupeptin), the “inhibition of CAPN5-R243L (mutant CAPN5)” value is “not the mutant CAPN5”. Further, at CAPN5 wild-type, the IC50 entry is given as “nanomolar” and the “inhibition of wildtype CAPN5” value was “inhibit the wildtype”.

Take “EGKAVLEA (also: FRET labels, places not given here) [P3GP1′V, consensus FRET peptide substrate of calpain-5]”: in the test with CAPN5-PC p.G267S, the “hydrolysis by CAPN5-PC p.G267S” value is “hydrolyzed”.

As for “EVKALEEA (also: FRET labels, places not given here) [P4′A, consensus FRET peptide substrate of calpain-5]”, the “hydrolysis by CAPN5-PC p.G267S” value with CAPN5-PC p.G267S was “hydrolyzed”.

Turning to “EVKALEEP (also: FRET labels, places not given here) [P4′P, consensus FRET peptide substrate of calpain-5]”, the “hydrolysis by CAPN5-PC p.G267S” value in the test with CAPN5-PC p.G267S is given as “hydrolyzed”.

As to “EVRALEEA (also: FRET labels, places not given here) [P2R, consensus FRET peptide substrate of calpain-5]”, in the test with CAPN5-PC p.G267S, the “hydrolysis by CAPN5-PC p.G267S” value is “hydrolyzed” and the “substrate turnover (kcat), preference” value was “preferred by CAPN5-PC”.

Consider “RQNRGGGCINH (N-terminal Dabcyl, EDANS on glutamate, C-terminal cap; calpain-5 peptide substrate) [PR1476]”, for which, in test [1] (CAPN5 0, 0.16, 0.49, 1.6 μm, peptide 0 μM to 160 μM), the “activity as substrate with CAPN5” value was “displays activity in a CAPN5 dose-dependent manner”. In test [1] (comparison between substrates), the “substrate quality / sensitivity to CAPN5-PC activity” value is recorded as “more sensitive than other generic calpain substrates”.

In the test with Human CAPN5-PC, “RQNRGGGCINH (not fully specified (N-terminus)) [PR1476]” yielded a Ki of 43 ± 14 µM.

As usually defined, the Ki is the equilibrium dissociation constant of an inhibitor or competing ligand from its target. High values mean lower affinity, low ones higher affinity.
